Results from ChEMBL document CHEMBL1146967, “The geminal dimethyl analogue of Flurbiprofen as a novel Abeta42 inhibitor and potential Alzheimer's disease modifying agent” (Bioorg Med Chem Lett, 2006).
The source made the active and inactive calls. The rule behind the calls is not given here.

Experiments:
[1] = Ratio of drug level in brain against plasma in mice at 50 mg/kg, po; assay type: ADME, organism-based; design: dose 50 mg/kg, route oral; details: mouse, brain and plasma, read-out: BBR
Mus musculus [2] = assay: Drug level in mouse plasma at 50 mg/kg, po; assay type: ADME, organism-based; design: dose 50 mg/kg, route oral; details: in vivo, read-out: Drug uptake
[3] = biological target: T1, Gamma-secretase (Homo sapiens) (UniProt Q96BI3+Q9NZ42+Q8WW43+P49768+Q92542+P49810); details: SH-SY5Y, 300 uM
Description: Inhibition of beta amyloid protein 42 in SH-SY5Y cell lines overexpressing SPA4CT at 300 uM

Mus musculus [4] = assay: Drug level in mouse brain at 50 mg/kg, po; assay type: ADME, organism-based; design: dose 50 mg/kg, route oral; details: in vivo, read-out: Drug uptake
[5] = Inhibition of beta amyloid protein 42 in HEK cell lines overexpressing APP695 at 100 uM; assay type: functional; details: Homo sapiens, HEK293
HEK293 = assay: Inhibition of beta amyloid protein 40 in HEK cell lines overexpressing APP695; assay type: functional, cell-based; details: Homo sapiens
[6] = Inhibition of beta amyloid protein 42 in HEK cell lines overexpressing APP695 at 40 uM; assay type: functional; details: Homo sapiens, HEK293
[7] = biological target: T1, Gamma-secretase (Homo sapiens); assay: Inhibition of beta amyloid protein 42 in SH-SY5Y cell lines overexpressing SPA4CT at 30 uM; assay type: functional, cell-based
[8] = biological target: T1, Gamma-secretase (Homo sapiens); assay: Inhibition of beta amyloid protein 42 in SH-SY5Y cell lines overexpressing SPA4CT at 100 uM; assay type: functional, cell-based
[9] = Tmax in monkey at 2 mg/kg, po; assay type: ADME, organism-based, Macaca mulatta; design: dose 2 mg/kg, route oral; details: rhesus monkey, in vivo
[10] = Clearance in dog at 2 mg/kg, iv; assay type: ADME, organism-based, Canis lupus familiaris; design: dose 2 mg/kg, route intravenous; details: in vivo
[11] = Cmax in rat at 2 mg/kg, po; assay type: ADME, organism-based; design: dose 2 mg/kg, route oral; details: in vivo
[12] = Cmax in mouse at 2 mg/kg, po; assay type: ADME, organism-based; design: dose 2 mg/kg, route oral; details: in vivo
[13] = Oral bioavailability in dog at 2 mg/kg, po; assay type: ADME, organism-based, Canis lupus familiaris; details: in vivo
[14] = Volume of distribution in rat at 2 mg/kg, iv; assay type: ADME, organism-based; design: dose 2 mg/kg, route intravenous; details: in vivo, read-out: Vdss
[15] = Tmax in dog at 2 mg/kg, po; assay type: ADME, organism-based, Canis lupus familiaris; design: dose 2 mg/kg, route oral; details: in vivo
Mus musculus [16] = assay: Decrease in beta amyloid protein 42 level in Tg2576 transgenic mouse at 21 mg/kg relative to control; assay type: functional; design: scale not given: the % may be the effect or the level left
[17] = Oral bioavailability in rat at 2 mg/kg, po; assay type: ADME, organism-based; details: in vivo
[18] = Clearance in mouse at 2 mg/kg, iv; assay type: ADME, organism-based; design: dose 2 mg/kg, route intravenous; details: in vivo
[19] = Tmax in mouse at 2 mg/kg, po; assay type: ADME, organism-based; design: dose 2 mg/kg, route oral; details: in vivo
[20] = Clearance in monkey at 2 mg/kg, iv; assay type: ADME, organism-based, Macaca mulatta; design: dose 2 mg/kg, route intravenous; details: rhesus monkey, in vivo
[21] = Half life in dog at 2 mg/kg, iv; assay type: ADME, organism-based, Canis lupus familiaris; design: dose 2 mg/kg, route intravenous; details: in vivo
[22] = Cmax in monkey at 2 mg/kg, po; assay type: ADME, organism-based, Macaca mulatta; design: dose 2 mg/kg, route oral; details: rhesus monkey, in vivo
Mus musculus [23] = assay: Decrease in beta amyloid protein 40 level in Tg2576 transgenic mouse at 21 mg/kg relative to control; assay type: functional; design: scale not given: the % may be the effect or the level left
[24] = biological target: Prostaglandin G/H synthase 1 (Homo sapiens, UniProt P23219); assay: Inhibition of COX1 in human whole blood; assay type: functional, tissue-based
Prostaglandin G/H synthase 1, sequence (P23219 whole entry): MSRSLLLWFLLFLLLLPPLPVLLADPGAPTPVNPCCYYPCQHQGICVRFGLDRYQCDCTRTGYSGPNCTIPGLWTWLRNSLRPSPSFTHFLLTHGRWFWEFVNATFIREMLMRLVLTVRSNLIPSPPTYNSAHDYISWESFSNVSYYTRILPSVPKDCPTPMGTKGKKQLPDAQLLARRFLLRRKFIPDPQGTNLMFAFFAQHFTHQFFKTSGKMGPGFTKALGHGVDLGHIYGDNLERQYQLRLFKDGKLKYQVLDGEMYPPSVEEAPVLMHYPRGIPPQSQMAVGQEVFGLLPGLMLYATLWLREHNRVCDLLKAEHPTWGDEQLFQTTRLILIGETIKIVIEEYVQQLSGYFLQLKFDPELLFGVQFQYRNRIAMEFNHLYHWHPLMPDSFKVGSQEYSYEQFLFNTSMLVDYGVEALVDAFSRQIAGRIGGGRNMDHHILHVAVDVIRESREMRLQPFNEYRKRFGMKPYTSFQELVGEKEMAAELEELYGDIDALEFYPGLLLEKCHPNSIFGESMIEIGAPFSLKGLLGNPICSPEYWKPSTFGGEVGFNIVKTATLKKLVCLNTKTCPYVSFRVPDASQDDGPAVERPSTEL

[25] = Tmax in rat at 2 mg/kg, po; assay type: ADME, organism-based; design: dose 2 mg/kg, route oral; details: in vivo
[26] = Volume of distribution in dog at 2 mg/kg, iv; assay type: ADME, organism-based, Canis lupus familiaris; design: dose 2 mg/kg, route intravenous; details: in vivo, read-out: Vdss
[27] = Half life in mouse at 2 mg/kg, iv; assay type: ADME, organism-based; design: dose 2 mg/kg, route intravenous; details: in vivo
[28] = Half life in monkey at 2 mg/kg, iv; assay type: ADME, organism-based, Macaca mulatta; design: dose 2 mg/kg, route intravenous; details: rhesus monkey, in vivo
[29] = biological target: T1, Gamma-secretase (Homo sapiens); assay: Inhibition of NOTCH receptor cleavage at 200 uM; assay type: functional
[30] = Volume of distribution in monkey at 2 mg/kg, iv; assay type: ADME, organism-based, Macaca mulatta; design: dose 2 mg/kg, route intravenous; details: rhesus monkey, in vivo, read-out: Vdss
[31] = Clearance in rat at 2 mg/kg, iv; assay type: ADME, organism-based; design: dose 2 mg/kg, route intravenous; details: in vivo
[32] = Cmax in dog at 2 mg/kg, po; assay type: ADME, organism-based, Canis lupus familiaris; design: dose 2 mg/kg, route oral; details: in vivo
[33] = Oral bioavailability in monkey at 2 mg/kg, po; assay type: ADME, organism-based, Macaca mulatta; details: rhesus monkey, in vivo
[34] = Half life in rat at 2 mg/kg, iv; assay type: ADME, organism-based; design: dose 2 mg/kg, route intravenous; details: in vivo
[35] = Volume of distribution in mouse at 2 mg/kg, iv; assay type: ADME, organism-based; design: dose 2 mg/kg, route intravenous; details: in vivo, read-out: Vdss
[36] = Oral bioavailability in mouse at 2 mg/kg, po; assay type: ADME, organism-based; details: in vivo
[37] = biological target: T1, Gamma-secretase (Homo sapiens); assay: Inhibition of beta amyloid protein 42 in SH-SY5Y cell lines overexpressing SPA4CT at 600 uM; assay type: functional, cell-based

Compound: COc1ccc2cc([C@H](C)C(=O)O)ccc2c1 [NAPROXEN]
- Kp [1]: 0.03
- concentration (Mus musculus [2]): 887 µM
- inhibition [3]: 3%
- concentration (Mus musculus [4]): 27 µM

Compound: COc1ccc2cc(C(C)(C)C(=O)O)ccc2c1
- inhibition at 100 µM [5]: 0%
- inhibition (HEK293): inactive

Compound: CC(C)(C(=O)O)c1cccc(Oc2ccccc2)c1
- inhibition at 100 µM [5]: 0%
- inhibition (HEK293): inactive

Compound: CC(=O)Nc1ccc(O)cc1 [ACETAMINOPHEN]
- Kp [1]: 0.68
- concentration (Mus musculus [2]): 64 µM
- concentration (Mus musculus [4]): 43 µM

Compound: CSc1ccc(/C=C2/C(C)=C(CC(=O)O)c3cc(F)ccc32)cc1 [SULINDAC SULFIDE]
- inhibition at 40 µM [6]: 54%
- inhibition [7]: 73%
- Kp [1]: 0.006
- concentration (Mus musculus [2]): 296 µM
- concentration (Mus musculus [4]): 1.7 µM

Compound: COc1ccc2c(c1)c(CC(=O)O)c(C)n2C(=O)c1ccc(Cl)cc1 [INDOMETHACIN]
- inhibition at 100 µM [5]: 73%
- inhibition [8]: 53%
- Kp [1]: 0.01
- concentration (Mus musculus [2]): 266 µM
- concentration (Mus musculus [4]): 3 µM

Compound: Cc1cccc(Nc2ccccc2C(=O)O)c1C [MEFENAMIC ACID]
- Kp [1]: 0.03
- concentration (Mus musculus [2]): 87 µM
- concentration (Mus musculus [4]): 2.7 µM

Compound: C[C@H](C(=O)O)c1ccc(-c2ccccc2)c(F)c1 [ESFLURBIPROFEN]
- inhibition at 100 µM [5]: 65%
- inhibition [8]: 37%

Compound: CC(C)(C(=O)O)c1ccc(-c2ccccc2)c(F)c1
- Tmax [9]: 0.25 h
- clearance [10]: 0.28 mL/min/kg
- Cmax [11]: 15.2 µM
- Cmax [12]: 24.4 µM
- bioavailability [13]: 87%
- Vd [14]: 0.15 L/kg
- Tmax [15]: 0.33 h
- Activity (Mus musculus [16]): 18%
- bioavailability [17]: 79%
- clearance [18]: 0.7 mL/min/kg
- Tmax [19]: 0.25 h
- clearance [20]: 3.8 mL/min/kg
- half-life [21]: 11.3 h
- Cmax [22]: 27.3 µM
- Activity (Mus musculus [23]): 13%
- inhibition at 100 µM [5]: 67%
- IC50 [24]: > 100 µM
- Tmax [25]: 2 h
- Vd [26]: 0.11 L/kg
- half-life [27]: 4.6 h
- inhibition (HEK293): inactive
- half-life [28]: 8 h
- Kp [1]: 0.02
- concentration (Mus musculus [2]): 849 µM
- Activity [29]: inactive
- Vd [30]: 0.3 L/kg
- clearance [31]: 1.3 mL/min/kg
- Cmax [32]: 76.4 µM
- bioavailability [33]: 90%
- concentration (Mus musculus [4]): 13 µM
- half-life [34]: 3.4 h
- Vd [35]: 0.22 L/kg
- bioavailability [36]: 81%

Compound: CC(C)Cc1ccc(C(C)(C)C(=O)O)cc1
- inhibition at 100 µM [5]: 3%
- inhibition (HEK293): inactive

Compound: CC1=C(CC(=O)O)c2cc(F)ccc2/C1=C\c1ccc(S(C)(=O)=O)cc1 [EXISULIND]
- inhibition at 40 µM [6]: 0%
- inhibition [7]: 9%

Compound: CC(C)(C(=O)O)c1ccc2c(c1)[nH]c1ccc(Cl)cc12
- inhibition at 100 µM [5]: 40%
- inhibition (HEK293): inactive

Compound: CC(C)Cc1ccc(C(C)C(=O)O)cc1 (stereo not drawn) [IBUPROFEN]
- inhibition [37]: 41%
- Activity (Mus musculus [16]): 20%
- Activity (Mus musculus [23]): 11%
- inhibition at 100 µM [5]: 28%
- Kp [1]: 0.03
- concentration (Mus musculus [2]): 592 µM
- concentration (Mus musculus [4]): 18 µM

Compound: C[C@@H](C(=O)O)c1ccc(-c2ccccc2)c(F)c1 [TARENFLURBIL]
- inhibition at 100 µM [5]: 51%
- inhibition [8]: 23%
- Kp [1]: 0.04
- concentration (Mus musculus [2]): 1190 µM
- concentration (Mus musculus [4]): 41 µM

Compound: O=C(O)Cc1ccccc1Nc1c(Cl)cccc1Cl
- inhibition [8]: 17%

Compound: COc1ccc2c(c1)c(C(C)(C)C(=O)O)c(C)n2C(=O)c1ccc(Cl)cc1
- inhibition at 100 µM [5]: 2%
- inhibition (HEK293): inactive

Compound: CC(C(=O)O)c1cccc(Oc2ccccc2)c1 (stereo not drawn) [FENOPROFEN]
- Kp [1]: 0.03
- concentration (Mus musculus [2]): 1360 µM
- concentration (Mus musculus [4]): 41 µM
